Experimental data taken from ChEMBL document CHEMBL5365546, “The Potential of NOD-like Receptor Protein 3 Inflammasome Inhibitors in the Treatments of Diseases” (ACS Med Chem Lett, 2023).

Tests used:
[1] = target: T1, NACHT, LRR and PYD domains-containing protein 3 (Homo sapiens, UniProt Q96P20); assay: Inhibition of NLRP3 in human PBMC assessed as reduction in LPS-induced TNF level preincubated for 30 mins followed by LPS-stimulation and measured after 6 hrs by MSD assay; assay type: cell-based
[2] = target: T1, NACHT, LRR and PYD domains-containing protein 3; assay: Inhibition of NLRP3 in human PBMC assessed as reduction in LPS-induced IL-1beta level preincubated for 30 mins followed by LPS-stimulation and measured after 6 hrs by MSD assay; assay type: cell-based

T1 sequence (Q96P20 whole entry, the tested form may be a part): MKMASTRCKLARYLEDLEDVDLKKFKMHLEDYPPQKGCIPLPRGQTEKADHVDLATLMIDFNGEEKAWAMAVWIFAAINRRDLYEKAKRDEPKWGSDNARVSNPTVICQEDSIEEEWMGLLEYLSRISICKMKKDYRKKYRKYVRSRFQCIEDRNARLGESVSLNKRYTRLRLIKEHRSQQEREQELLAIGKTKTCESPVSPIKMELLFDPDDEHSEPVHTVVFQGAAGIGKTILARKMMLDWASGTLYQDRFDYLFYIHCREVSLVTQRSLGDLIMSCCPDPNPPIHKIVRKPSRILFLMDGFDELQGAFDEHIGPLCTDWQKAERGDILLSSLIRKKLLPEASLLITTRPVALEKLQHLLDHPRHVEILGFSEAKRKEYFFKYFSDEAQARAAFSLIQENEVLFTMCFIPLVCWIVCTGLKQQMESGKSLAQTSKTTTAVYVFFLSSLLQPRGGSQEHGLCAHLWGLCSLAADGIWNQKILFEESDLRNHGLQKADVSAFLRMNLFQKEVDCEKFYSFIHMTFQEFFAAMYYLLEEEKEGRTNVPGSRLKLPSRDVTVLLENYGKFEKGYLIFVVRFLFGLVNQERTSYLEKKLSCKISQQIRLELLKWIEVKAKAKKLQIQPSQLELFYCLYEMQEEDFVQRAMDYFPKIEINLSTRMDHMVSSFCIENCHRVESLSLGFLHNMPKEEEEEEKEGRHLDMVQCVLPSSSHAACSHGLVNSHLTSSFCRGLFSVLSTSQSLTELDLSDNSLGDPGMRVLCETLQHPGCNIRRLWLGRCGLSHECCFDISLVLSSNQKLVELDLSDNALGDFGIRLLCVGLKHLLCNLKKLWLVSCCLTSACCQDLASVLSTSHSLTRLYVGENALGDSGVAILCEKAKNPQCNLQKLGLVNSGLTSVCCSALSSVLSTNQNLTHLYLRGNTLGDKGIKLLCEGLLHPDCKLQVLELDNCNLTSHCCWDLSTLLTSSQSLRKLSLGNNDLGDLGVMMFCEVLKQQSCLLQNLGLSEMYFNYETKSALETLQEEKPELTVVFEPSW

Compound | AC50 [1] [nM] | AC50 [2] [nM]
CC(C)c1nn(CC(=O)Nc2ccc3nncn3c2)c(=O)cc1N1CCCCC1 | > 20000 | 1230
CC(C)c1nn(CC(=O)Nc2ccc3nncn3c2)c(=O)cc1N1CCCC1 | > 10000 | 330
CC(C)c1nn(CC(=O)Nc2ccc3nncn3c2)c(=O)cc1NCC1CC1 | > 10000 | 1530
CC(C)c1nn(CC(=O)Nc2ccc3nncn3c2)c(=O)cc1Nc1ccccc1 | > 10000 | > 15000
CC(C)c1nn(CC(=O)Nc2ccc3nncn3c2)c(=O)cc1N1C2CCC1CC2 | > 10000 | 1020
CC(C)c1nn(CC(=O)Nc2ccc3nncn3c2)c(=O)cc1N1CC[C@@H]2C[C@@H]2C1 | > 20000 | 500
CC(C)c1nn(CC(=O)Nc2ccc3nncn3c2)c(=O)cc1N1CC[C@@H](F)C1 | > 10000 | 530
CC(C)c1nn(CC(=O)Nc2ccc3nncn3c2)c(=O)cc1N1CC[C@H](C)C1 | > 20000 | 420
CC(C)c1nn(CC(=O)Nc2ccc3nncn3c2)c(=O)cc1N1CC2CC2C1 (stereo not given) | > 10000 | 90
CC(C)c1nn(CC(=O)Nc2ccc3nncn3c2)c(=O)cc1N1CCCC1Cc1ccccn1 (stereo not given) | > 20000 | 1280
